Reference: the CheMixHub viscosity set
± gives the uncertainty stated by the source.

Experiment: xn = mol fraction of the nth substance listed

SMILES: O=C([O-])c1ccccc1O.[Na+] + O
- viscosity (293.15 K, 100 kPa, x1 = 5.685e-05): 1.003 ± 0.021 mPa·s
- viscosity (293.15 K, 100 kPa, x1 = 0.0001129): 1.006 ± 0.021 mPa·s
- viscosity (293.15 K, 100 kPa, x1 = 0.0004518): 1.013 ± 0.021 mPa·s
- viscosity (293.15 K, 100 kPa, x1 = 0.0009067): 1.024 ± 0.021 mPa·s
- viscosity (293.15 K, 100 kPa, x1 = 0.001366): 1.037 ± 0.022 mPa·s
- viscosity (293.15 K, 100 kPa, x1 = 0.001826): 1.045 ± 0.022 mPa·s
- viscosity (293.15 K, 100 kPa, x1 = 0.002292): 1.056 ± 0.022 mPa·s
- viscosity (293.15 K, 100 kPa, x1 = 0.00276): 1.067 ± 0.022 mPa·s
- viscosity (293.15 K, 100 kPa, x1 = 0.003231): 1.076 ± 0.023 mPa·s
- viscosity (293.15 K, 101 kPa, x1 = 0.000472): 1.014 ± 0.022 mPa·s
- viscosity (293.15 K, 101 kPa, x1 = 0.000925): 1.025 ± 0.022 mPa·s
- viscosity (293.15 K, 101 kPa, x1 = 0.001): 1.025 ± 0.013 mPa·s
- viscosity (293.15 K, 101 kPa, x1 = 0.00135): 1.036 ± 0.022 mPa·s
- viscosity (293.15 K, 101 kPa, x1 = 0.0018): 1.046 ± 0.022 mPa·s
- viscosity (293.15 K, 101 kPa, x1 = 0.002): 1.05 ± 0.013 mPa·s
- viscosity (293.15 K, 101 kPa, x1 = 0.00224): 1.057 ± 0.023 mPa·s
- viscosity (293.15 K, 101 kPa, x1 = 0.002647): 1.067 ± 0.023 mPa·s
- viscosity (293.15 K, 101 kPa, x1 = 0.003578): 1.089 ± 0.023 mPa·s
- viscosity (293.15 K, 101 kPa, x1 = 0.005317): 1.131 ± 0.024 mPa·s
- viscosity (293.15 K, 101 kPa, x1 = 0.007012): 1.171 ± 0.025 mPa·s
- viscosity (298.15 K, 100 kPa, x1 = 5.685e-05): 0.8913 ± 0.019 mPa·s
- viscosity (298.15 K, 100 kPa, x1 = 0.0001129): 0.8924 ± 0.019 mPa·s
- viscosity (298.15 K, 100 kPa, x1 = 0.0004518): 0.8989 ± 0.019 mPa·s
- viscosity (298.15 K, 100 kPa, x1 = 0.0009067): 0.9079 ± 0.019 mPa·s
- viscosity (298.15 K, 100 kPa, x1 = 0.001366): 0.9164 ± 0.019 mPa·s
- viscosity (298.15 K, 100 kPa, x1 = 0.001826): 0.9259 ± 0.019 mPa·s
- viscosity (298.15 K, 100 kPa, x1 = 0.002292): 0.9367 ± 0.02 mPa·s
- viscosity (298.15 K, 100 kPa, x1 = 0.00276): 0.9449 ± 0.02 mPa·s
- viscosity (298.15 K, 100 kPa, x1 = 0.003231): 0.9506 ± 0.02 mPa·s
- viscosity (298.15 K, 101 kPa, x1 = 0.000472): 0.9009 ± 0.019 mPa·s
- viscosity (298.15 K, 101 kPa, x1 = 0.000925): 0.9102 ± 0.019 mPa·s
- viscosity (298.15 K, 101 kPa, x1 = 0.001): 0.9152 ± 0.011 mPa·s
- viscosity (298.15 K, 101 kPa, x1 = 0.00135): 0.9188 ± 0.019 mPa·s
- viscosity (298.15 K, 101 kPa, x1 = 0.0018): 0.9279 ± 0.02 mPa·s
- viscosity (298.15 K, 101 kPa, x1 = 0.002): 0.9359 ± 0.011 mPa·s
- viscosity (298.15 K, 101 kPa, x1 = 0.00224): 0.937 ± 0.02 mPa·s
- viscosity (298.15 K, 101 kPa, x1 = 0.002288): 0.946 ± 0.009 mPa·s
- viscosity (298.15 K, 101 kPa, x1 = 0.002647): 0.9454 ± 0.02 mPa·s
- viscosity (298.15 K, 101 kPa, x1 = 0.004685): 0.983 ± 0.009 mPa·s
- viscosity (298.15 K, 101 kPa, x1 = 0.009424): 1.083 ± 0.01 mPa·s
- viscosity (298.15 K, 101 kPa, x1 = 0.01337): 1.188 ± 0.011 mPa·s
- viscosity (298.15 K, 101 kPa, x1 = 0.01919): 1.354 ± 0.012 mPa·s
- viscosity (298.15 K, 101 kPa, x1 = 0.02192): 1.44 ± 0.013 mPa·s
- viscosity (298.15 K, 101 kPa, x1 = 0.02737): 1.628 ± 0.015 mPa·s
- viscosity (303.15 K, 100 kPa, x1 = 5.685e-05): 0.7982 ± 0.017 mPa·s
- viscosity (303.15 K, 100 kPa, x1 = 0.0001129): 0.7983 ± 0.017 mPa·s
- viscosity (303.15 K, 100 kPa, x1 = 0.0004518): 0.8049 ± 0.017 mPa·s
- viscosity (303.15 K, 100 kPa, x1 = 0.0009067): 0.8132 ± 0.017 mPa·s
- viscosity (303.15 K, 100 kPa, x1 = 0.001366): 0.8198 ± 0.017 mPa·s
- viscosity (303.15 K, 100 kPa, x1 = 0.001826): 0.8289 ± 0.017 mPa·s
- viscosity (303.15 K, 100 kPa, x1 = 0.002292): 0.8375 ± 0.018 mPa·s
- viscosity (303.15 K, 100 kPa, x1 = 0.00276): 0.8458 ± 0.018 mPa·s
- viscosity (303.15 K, 100 kPa, x1 = 0.003231): 0.8501 ± 0.018 mPa·s
- viscosity (303.15 K, 101 kPa, x1 = 0.001): 0.8184 ± 0.01 mPa·s
- viscosity (303.15 K, 101 kPa, x1 = 0.002): 0.8392 ± 0.01 mPa·s
- viscosity (303.15 K, 101 kPa, x1 = 0.002288): 0.842 ± 0.008 mPa·s
- viscosity (303.15 K, 101 kPa, x1 = 0.004685): 0.875 ± 0.008 mPa·s
- viscosity (303.15 K, 101 kPa, x1 = 0.009424): 0.963 ± 0.009 mPa·s
- viscosity (303.15 K, 101 kPa, x1 = 0.01337): 1.055 ± 0.01 mPa·s
- viscosity (303.15 K, 101 kPa, x1 = 0.01919): 1.195 ± 0.011 mPa·s
- viscosity (303.15 K, 101 kPa, x1 = 0.02192): 1.265 ± 0.012 mPa·s
- viscosity (303.15 K, 101 kPa, x1 = 0.02737): 1.423 ± 0.013 mPa·s
- viscosity (308.15 K, 100 kPa, x1 = 5.685e-05): 0.7198 ± 0.015 mPa·s
- viscosity (308.15 K, 100 kPa, x1 = 0.0001129): 0.7207 ± 0.015 mPa·s
- viscosity (308.15 K, 100 kPa, x1 = 0.0004518): 0.7259 ± 0.015 mPa·s
- viscosity (308.15 K, 100 kPa, x1 = 0.0009067): 0.7334 ± 0.015 mPa·s
- viscosity (308.15 K, 100 kPa, x1 = 0.001366): 0.7394 ± 0.015 mPa·s
- viscosity (308.15 K, 100 kPa, x1 = 0.001826): 0.748 ± 0.016 mPa·s
- viscosity (308.15 K, 100 kPa, x1 = 0.002292): 0.7552 ± 0.016 mPa·s
- viscosity (308.15 K, 100 kPa, x1 = 0.00276): 0.7614 ± 0.016 mPa·s
- viscosity (308.15 K, 100 kPa, x1 = 0.003231): 0.7666 ± 0.016 mPa·s
- viscosity (308.15 K, 101 kPa, x1 = 0.001): 0.7362 ± 0.0091 mPa·s
- viscosity (308.15 K, 101 kPa, x1 = 0.002): 0.7538 ± 0.0093 mPa·s
- viscosity (308.15 K, 101 kPa, x1 = 0.002288): 0.757 ± 0.007 mPa·s
- viscosity (308.15 K, 101 kPa, x1 = 0.004685): 0.786 ± 0.007 mPa·s
- viscosity (308.15 K, 101 kPa, x1 = 0.009424): 0.863 ± 0.008 mPa·s
- viscosity (308.15 K, 101 kPa, x1 = 0.01337): 0.944 ± 0.009 mPa·s
- viscosity (308.15 K, 101 kPa, x1 = 0.01919): 1.063 ± 0.01 mPa·s
- viscosity (308.15 K, 101 kPa, x1 = 0.02192): 1.125 ± 0.01 mPa·s
- viscosity (308.15 K, 101 kPa, x1 = 0.02737): 1.261 ± 0.012 mPa·s
- viscosity (313.15 K, 100 kPa, x1 = 5.685e-05): 0.6537 ± 0.014 mPa·s
- viscosity (313.15 K, 100 kPa, x1 = 0.0001129): 0.6543 ± 0.014 mPa·s
- viscosity (313.15 K, 100 kPa, x1 = 0.0004518): 0.659 ± 0.014 mPa·s
- viscosity (313.15 K, 100 kPa, x1 = 0.0009067): 0.6657 ± 0.014 mPa·s
- viscosity (313.15 K, 100 kPa, x1 = 0.001366): 0.6711 ± 0.014 mPa·s
- viscosity (313.15 K, 100 kPa, x1 = 0.001826): 0.6781 ± 0.014 mPa·s
- viscosity (313.15 K, 100 kPa, x1 = 0.002292): 0.6844 ± 0.014 mPa·s
- viscosity (313.15 K, 100 kPa, x1 = 0.00276): 0.6908 ± 0.015 mPa·s
- viscosity (313.15 K, 100 kPa, x1 = 0.003231): 0.6959 ± 0.015 mPa·s
- viscosity (313.15 K, 101 kPa, x1 = 0.001): 0.6684 ± 0.0083 mPa·s
- viscosity (313.15 K, 101 kPa, x1 = 0.002): 0.6817 ± 0.0084 mPa·s
- viscosity (313.15 K, 101 kPa, x1 = 0.002288): 0.684 ± 0.007 mPa·s
- viscosity (313.15 K, 101 kPa, x1 = 0.004685): 0.714 ± 0.007 mPa·s
- viscosity (313.15 K, 101 kPa, x1 = 0.009424): 0.781 ± 0.007 mPa·s
- viscosity (313.15 K, 101 kPa, x1 = 0.01337): 0.846 ± 0.008 mPa·s
- viscosity (313.15 K, 101 kPa, x1 = 0.01919): 0.95 ± 0.009 mPa·s
- viscosity (313.15 K, 101 kPa, x1 = 0.02192): 1.008 ± 0.009 mPa·s
- viscosity (313.15 K, 101 kPa, x1 = 0.02737): 1.132 ± 0.01 mPa·s
- viscosity (318.15 K, 101 kPa, x1 = 0.001): 0.6111 ± 0.0075 mPa·s
- viscosity (318.15 K, 101 kPa, x1 = 0.002): 0.6235 ± 0.0077 mPa·s
